This passage reports remaining binding results from patent publication US12275731B2, “Azaindole inhibitors of wild-type and mutant forms of LRRK2” (DANA-FARBER CANCER INSTITUTE, INC., priority 2018, dated 2025).

What all share (assay): KinomeScan profiling
Common to all, as to type: binding

For one experiment, the target named is CDK5 (Homo sapiens, UniProt Q00535). Particulars: CDK5, 1 μM; read-out: % control. Put shortly:
(§1)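 Normalised RLU (% control; DMSO 100%, positive control 0%) was measured for compounds dosed at 1 μM over 468 kinases, active cut-off <35%.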

Another experiment addresses CDK11 (Homo sapiens, UniProt Q9BWU1). Particulars: CDK11, 1 μM; read-out: % control. Put shortly: as §1
In the next experiment the target is TLK2 (Homo sapiens, UniProt Q86UE8). Particulars: TLK2, 1 μM; read-out: % control. Put shortly:
as §1

The target of the next experiment is FGFR1 (Homo sapiens, UniProt P11362). Particulars: FGFR1, 1 μM; read-out: % control. Put shortly: as §1
Sequence of FGFR1 (P11362 22-822): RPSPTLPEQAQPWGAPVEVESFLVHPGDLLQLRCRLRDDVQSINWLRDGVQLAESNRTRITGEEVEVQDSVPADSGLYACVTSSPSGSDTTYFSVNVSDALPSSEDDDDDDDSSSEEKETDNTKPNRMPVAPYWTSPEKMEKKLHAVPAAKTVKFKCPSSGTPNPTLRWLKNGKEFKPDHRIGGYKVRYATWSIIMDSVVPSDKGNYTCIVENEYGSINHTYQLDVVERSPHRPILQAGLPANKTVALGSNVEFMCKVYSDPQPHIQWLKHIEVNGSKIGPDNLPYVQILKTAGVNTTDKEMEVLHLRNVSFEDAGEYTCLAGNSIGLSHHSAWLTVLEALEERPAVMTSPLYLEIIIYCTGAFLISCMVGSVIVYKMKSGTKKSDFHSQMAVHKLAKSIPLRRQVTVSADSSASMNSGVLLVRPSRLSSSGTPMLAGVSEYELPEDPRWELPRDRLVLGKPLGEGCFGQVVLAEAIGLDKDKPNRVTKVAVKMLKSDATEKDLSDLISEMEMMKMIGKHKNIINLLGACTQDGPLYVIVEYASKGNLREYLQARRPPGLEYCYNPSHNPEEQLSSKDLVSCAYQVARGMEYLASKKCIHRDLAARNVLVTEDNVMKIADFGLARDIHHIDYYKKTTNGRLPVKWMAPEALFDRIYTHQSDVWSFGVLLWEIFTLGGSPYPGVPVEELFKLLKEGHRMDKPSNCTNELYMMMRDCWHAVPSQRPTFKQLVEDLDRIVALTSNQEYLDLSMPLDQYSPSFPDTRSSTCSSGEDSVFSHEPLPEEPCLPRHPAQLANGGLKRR
A further experiment addresses T1, MEK6 (Homo sapiens, UniProt P52564).
T1 sequence (P52564 1-334): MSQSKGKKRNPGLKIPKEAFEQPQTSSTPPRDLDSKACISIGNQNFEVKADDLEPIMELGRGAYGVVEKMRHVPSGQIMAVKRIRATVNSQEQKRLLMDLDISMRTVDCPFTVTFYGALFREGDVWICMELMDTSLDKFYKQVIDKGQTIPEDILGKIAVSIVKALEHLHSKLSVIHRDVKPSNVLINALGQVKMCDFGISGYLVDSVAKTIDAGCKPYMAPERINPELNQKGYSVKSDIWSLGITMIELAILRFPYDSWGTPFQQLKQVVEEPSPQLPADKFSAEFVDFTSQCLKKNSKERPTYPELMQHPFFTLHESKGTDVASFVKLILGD
Conditions: MEK6, 1 μM; read-out: % control. Put shortly:
as §1

A further experiment has as its target VPS34 (Homo sapiens, UniProt Q8NEB9). Conditions: VPS34, 1 μM; read-out: % control. A digest of the protocol: as §1
The target of a further experiment is T2, NEK10 (Homo sapiens, UniProt Q6ZWH5).
T2 sequence (Q6ZWH5 1-1172): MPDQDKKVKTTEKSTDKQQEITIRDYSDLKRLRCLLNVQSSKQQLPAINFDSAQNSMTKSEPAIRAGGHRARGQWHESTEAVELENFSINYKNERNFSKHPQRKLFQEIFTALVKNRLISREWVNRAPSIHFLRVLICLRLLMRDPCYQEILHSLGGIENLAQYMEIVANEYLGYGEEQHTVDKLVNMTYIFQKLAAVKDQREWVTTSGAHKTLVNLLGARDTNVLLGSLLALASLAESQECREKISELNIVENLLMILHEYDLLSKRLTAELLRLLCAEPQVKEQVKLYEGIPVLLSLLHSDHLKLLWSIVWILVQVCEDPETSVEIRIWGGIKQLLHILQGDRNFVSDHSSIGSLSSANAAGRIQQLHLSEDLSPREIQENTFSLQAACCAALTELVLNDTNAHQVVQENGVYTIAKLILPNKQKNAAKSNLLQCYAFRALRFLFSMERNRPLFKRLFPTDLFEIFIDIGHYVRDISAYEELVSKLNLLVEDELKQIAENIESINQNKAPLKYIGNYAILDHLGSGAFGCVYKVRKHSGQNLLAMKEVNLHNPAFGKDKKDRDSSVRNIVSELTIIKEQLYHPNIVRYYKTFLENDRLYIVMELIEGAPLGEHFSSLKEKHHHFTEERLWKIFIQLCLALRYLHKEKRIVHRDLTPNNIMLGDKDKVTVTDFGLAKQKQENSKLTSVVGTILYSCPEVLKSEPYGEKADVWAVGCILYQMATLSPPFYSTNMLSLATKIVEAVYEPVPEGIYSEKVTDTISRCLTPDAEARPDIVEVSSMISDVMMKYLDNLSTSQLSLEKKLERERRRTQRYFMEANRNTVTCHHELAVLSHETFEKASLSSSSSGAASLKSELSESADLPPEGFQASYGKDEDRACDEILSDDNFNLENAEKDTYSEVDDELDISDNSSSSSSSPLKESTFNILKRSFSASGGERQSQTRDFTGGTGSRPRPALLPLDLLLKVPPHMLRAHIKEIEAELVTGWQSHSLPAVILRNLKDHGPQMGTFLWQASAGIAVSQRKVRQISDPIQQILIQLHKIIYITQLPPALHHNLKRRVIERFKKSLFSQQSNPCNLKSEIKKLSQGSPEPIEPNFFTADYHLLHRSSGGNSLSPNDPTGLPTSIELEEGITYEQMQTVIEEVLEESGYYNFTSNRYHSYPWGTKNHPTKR
Conditions: NEK10, 1 μM; read-out: % control. Put shortly: as §1

In another experiment the target is T3, CDC2L2 (Homo sapiens, UniProt Q9UQ88).
T3 sequence (Q9UQ88 1-783): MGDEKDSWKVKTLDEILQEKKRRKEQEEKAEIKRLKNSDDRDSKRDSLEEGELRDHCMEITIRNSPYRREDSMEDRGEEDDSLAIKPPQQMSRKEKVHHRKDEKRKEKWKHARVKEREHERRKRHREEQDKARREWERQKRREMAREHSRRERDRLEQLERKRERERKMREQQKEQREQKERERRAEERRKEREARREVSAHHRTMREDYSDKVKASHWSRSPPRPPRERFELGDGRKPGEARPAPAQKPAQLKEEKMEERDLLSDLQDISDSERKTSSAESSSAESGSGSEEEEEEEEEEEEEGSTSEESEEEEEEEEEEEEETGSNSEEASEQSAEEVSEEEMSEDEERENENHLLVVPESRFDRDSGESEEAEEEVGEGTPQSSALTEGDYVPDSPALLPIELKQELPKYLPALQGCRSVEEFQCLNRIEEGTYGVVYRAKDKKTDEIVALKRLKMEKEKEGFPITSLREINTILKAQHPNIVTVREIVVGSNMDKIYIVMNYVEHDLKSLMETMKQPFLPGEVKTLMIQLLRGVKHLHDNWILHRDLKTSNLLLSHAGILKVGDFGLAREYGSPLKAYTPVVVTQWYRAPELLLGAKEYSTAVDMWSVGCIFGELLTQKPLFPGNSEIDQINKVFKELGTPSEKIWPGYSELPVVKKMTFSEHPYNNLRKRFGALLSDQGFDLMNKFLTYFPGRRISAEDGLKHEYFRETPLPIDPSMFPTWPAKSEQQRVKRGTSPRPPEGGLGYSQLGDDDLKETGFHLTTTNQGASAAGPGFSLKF
Particulars: CDC2L2, 1 μM; read-out: % control. A digest of the protocol:
as §1

Sequence of CDK11 (Q9BWU1 whole entry): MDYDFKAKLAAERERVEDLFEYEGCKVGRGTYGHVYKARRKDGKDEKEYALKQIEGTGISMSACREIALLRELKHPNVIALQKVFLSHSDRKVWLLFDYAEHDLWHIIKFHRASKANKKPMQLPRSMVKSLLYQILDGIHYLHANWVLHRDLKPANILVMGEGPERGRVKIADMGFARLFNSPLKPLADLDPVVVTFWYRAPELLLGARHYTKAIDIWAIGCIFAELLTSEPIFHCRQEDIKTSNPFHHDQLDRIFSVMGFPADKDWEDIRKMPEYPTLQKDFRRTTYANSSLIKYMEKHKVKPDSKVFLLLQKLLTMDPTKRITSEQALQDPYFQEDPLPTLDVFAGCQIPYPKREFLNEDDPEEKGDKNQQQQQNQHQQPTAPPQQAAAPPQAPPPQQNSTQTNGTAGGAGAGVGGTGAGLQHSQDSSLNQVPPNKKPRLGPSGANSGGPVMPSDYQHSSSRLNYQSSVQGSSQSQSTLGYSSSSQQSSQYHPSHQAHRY
Sequence of CDK5 (Q00535 whole entry): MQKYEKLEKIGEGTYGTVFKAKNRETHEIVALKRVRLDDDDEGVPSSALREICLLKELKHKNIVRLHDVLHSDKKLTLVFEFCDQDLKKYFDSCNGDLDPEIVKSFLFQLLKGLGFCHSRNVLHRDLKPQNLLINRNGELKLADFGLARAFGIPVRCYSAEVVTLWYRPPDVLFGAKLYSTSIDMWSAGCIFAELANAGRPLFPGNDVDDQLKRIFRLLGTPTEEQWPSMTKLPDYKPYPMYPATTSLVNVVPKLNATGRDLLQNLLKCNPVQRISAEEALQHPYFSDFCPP
Sequence of TLK2 (Q86UE8 whole entry): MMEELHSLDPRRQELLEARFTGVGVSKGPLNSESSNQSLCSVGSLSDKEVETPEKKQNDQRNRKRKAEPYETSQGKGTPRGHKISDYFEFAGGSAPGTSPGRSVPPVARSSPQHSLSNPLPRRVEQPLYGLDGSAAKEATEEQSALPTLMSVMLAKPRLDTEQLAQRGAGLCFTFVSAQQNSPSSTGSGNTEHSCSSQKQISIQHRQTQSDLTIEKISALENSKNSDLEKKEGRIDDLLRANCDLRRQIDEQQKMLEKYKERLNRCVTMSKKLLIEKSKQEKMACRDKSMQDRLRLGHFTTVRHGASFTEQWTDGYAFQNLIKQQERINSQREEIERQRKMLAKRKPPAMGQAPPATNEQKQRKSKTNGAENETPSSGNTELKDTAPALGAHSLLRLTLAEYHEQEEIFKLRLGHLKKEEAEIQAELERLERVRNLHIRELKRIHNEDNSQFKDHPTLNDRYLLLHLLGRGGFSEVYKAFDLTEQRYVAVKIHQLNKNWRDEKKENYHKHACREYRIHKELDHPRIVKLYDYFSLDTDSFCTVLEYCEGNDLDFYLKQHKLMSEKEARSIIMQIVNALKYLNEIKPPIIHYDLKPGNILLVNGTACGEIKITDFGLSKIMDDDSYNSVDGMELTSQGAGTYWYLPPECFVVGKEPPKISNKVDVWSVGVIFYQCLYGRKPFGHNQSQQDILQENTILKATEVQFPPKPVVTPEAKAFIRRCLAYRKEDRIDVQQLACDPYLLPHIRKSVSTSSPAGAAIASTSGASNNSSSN
Sequence of VPS34 (Q8NEB9 whole entry): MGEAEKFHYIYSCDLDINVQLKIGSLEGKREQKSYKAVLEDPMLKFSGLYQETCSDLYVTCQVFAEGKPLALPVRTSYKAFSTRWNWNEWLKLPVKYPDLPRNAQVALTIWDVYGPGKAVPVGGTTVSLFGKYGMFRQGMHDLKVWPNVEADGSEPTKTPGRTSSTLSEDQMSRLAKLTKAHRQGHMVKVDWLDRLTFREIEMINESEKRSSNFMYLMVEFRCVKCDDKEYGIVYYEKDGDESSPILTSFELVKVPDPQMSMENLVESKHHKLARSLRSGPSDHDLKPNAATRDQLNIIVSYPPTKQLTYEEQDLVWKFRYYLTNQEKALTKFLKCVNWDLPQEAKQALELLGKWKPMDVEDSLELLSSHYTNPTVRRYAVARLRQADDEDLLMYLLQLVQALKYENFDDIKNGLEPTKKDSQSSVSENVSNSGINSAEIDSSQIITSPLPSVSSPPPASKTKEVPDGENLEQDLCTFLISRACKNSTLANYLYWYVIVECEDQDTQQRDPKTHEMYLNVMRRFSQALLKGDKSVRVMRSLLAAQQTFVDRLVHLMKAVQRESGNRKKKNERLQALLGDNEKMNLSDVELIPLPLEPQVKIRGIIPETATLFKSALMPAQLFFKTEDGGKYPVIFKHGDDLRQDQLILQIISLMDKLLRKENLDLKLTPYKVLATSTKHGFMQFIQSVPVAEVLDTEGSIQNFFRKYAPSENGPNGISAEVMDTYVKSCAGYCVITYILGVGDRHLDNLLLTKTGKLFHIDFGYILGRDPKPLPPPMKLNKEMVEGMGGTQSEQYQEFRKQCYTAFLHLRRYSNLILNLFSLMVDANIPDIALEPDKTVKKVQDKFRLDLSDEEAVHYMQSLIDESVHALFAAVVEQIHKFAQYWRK

As to `CNc1c(-c2ccc(C(=O)N3CCC(N4CCOCC4)CC3)cc2)cnc2[nH]cc(Cl)c12` [Compound 96, (4-(3-chloro-4-(methylamino)-1H-pyrrolo[2,3-b]pyridin-5-yl)phenyl)(4-morpholinopiperidin-1-yl)methanone], the remaining binding at 1 µM at CDK5 was found to be 97%; on CDK11, 68%; on TLK2, 100%; at FGFR1, 85%; at MEK6 it was 16%; at VPS34, 51%. In addition, the remaining binding at 1 µM at NEK10 and at CDC2L2 was 100% throughout.

As to `O=C(c1ccc(-c2cnc3[nH]cc(Cl)c3c2NC2CCCC2)cc1)N1CCC(N2CCOCC2)CC1` [Compound 101, (4-(3-chloro-4-(cyclopentylamino)-1H-pyrrolo[2,3-b]pyridin-5-yl)phenyl)(4-morpholinopiperidin-1-yl)methanone], the remaining binding at 1 µM was determined as 94% on CDK5; 35% at CDK11; 100% on TLK2; 77% on FGFR1; 95% at MEK6; 100% on VPS34. For the same compound, the results for the remaining binding at 1 µM at NEK10 and at CDC2L2 were 100% and 92%, respectively.

Turning to `CNc1c(-c2cnn([C@H]3CCN(C(C)=O)C[C@@H]3F)c2)cnc2[nH]cc(Cl)c12` [Compound 77, 1-((3S,4S)-4-(4-(3-chloro-4-(methylamino)-1H-pyrrolo[2,3-b]pyridin-5-yl)-1H-pyrazol-1-yl)-3-fluoropiperidin-1-yl)ethan-1-one], the remaining binding at 1 µM at CDK5 turned out to be 91%; on CDK11, 96%; on TLK2 it was 99%; on FGFR1, 87%; on MEK6 it was 60%; at VPS34 it was 35%. The remaining binding at 1 µM on NEK10 was determined as 100%; at CDC2L2 it was 91%.
